From patent US20250386827A1, “PESTICIDES WITH METAL NANOPARTICLE AND CELLULOSIC NANOMATERIAL COMPLEX” (NDSU Research Foundation, priority 2024, published 2025)

Assays:
[1] = Surface tension of droplet (pendant drop, drop-shape analyzer); type: physicochemical; settings: 100 mg/mL in water
Protocol: Surface Adhesion Properties. The contact angle (θc) of the complexation solution on the wheat leaf surface and the surface tension at the liquid-vapor interface (γLV) were measured using a KRUSS (Model: DSA1005, Serial: 30009734, Germany) drop-shape analyzer. The wheat leaf was taped on the sample stage to prepare a flat and level surface for the measurement. […] KRUSS software tracked the surface of the droplet with respect to the leaf surface baseline and calculated the contact angle (θC). Surface tension γLv of the droplet (largest droplet formation at syringe nozzle just before dripping from the nozzle) was measured using a KRUSS drop shape analyzer (pendant needle was used, diameter 1.8 mm). The solid-liquid adhesion energy per unit area (δWSLV) of the droplet was calculated using the following Young-Dupré equation (1): […]

[2] = tested on: wheat leaf surface; experiment: Contact angle and solid-liquid adhesion energy on wheat leaf surface; type: physicochemical; settings: 100 mg/mL
Protocol: Surface Adhesion Properties. The contact angle (θc) of the complexation solution on the wheat leaf surface and the surface tension at the liquid-vapor interface (γLV) were measured using a KRUSS (Model: DSA1005, Serial: 30009734, Germany) drop-shape analyzer. The wheat leaf was taped on the sample stage to prepare a flat and level surface for the measurement. […] KRUSS software tracked the surface of the droplet with respect to the leaf surface baseline and calculated the contact angle (θC). Surface tension γLv of the droplet (largest droplet formation at syringe nozzle just before dripping from the nozzle) was measured using a KRUSS drop shape analyzer (pendant needle was used, diameter 1.8 mm). The solid-liquid adhesion energy per unit area (δWSLV) of the droplet was calculated using the following Young-Dupré equation (1): [formula]

O.O.O.O.O.O=S(=O)([O-])[O-].[Cu+2] [CuSO4, copper (II) sulfate pentahydrate]
surface tension [1]: 57.46 mM/m
contact angle [2]: 125.2 °
surface adhesion energy ([2]; Young-Dupré equation): 24.17 mM/m
